Reference: patent publication US10526580B2, “Differentiated cell population of endothelial cells derived from human pluripotent stem cells, composition, system, kit and uses thereof” (BIOCANT-ASSOCIAÇÃO DE TRANSFERÊNCIA DE TECNOLOGIA, priority 2012, dated 2020)

Experiments:
Xenopus embryos = details: 20 μM; cited from earlier work
[1] = test system: hESC-derived ECs versus HUAECs; assay: High-throughput screening of LOPAC library, PrestoBlue cell viability, hESC-derived ECs versus HUAECs; format: cell-based, human; details: LOPAC screen, 4.5 μM, 4 days, PrestoBlue assay
Experimental: (§1) High-throughput screening (HTS). HUAECS (Lonza) and hESC-derived ECs were cultured in EGM-2 medium while human anterior cruciate ligament cells (ACL cells) were cultured in Dulbecco's modified Eagle's medium (DMEM; PAA) supplemented with 10% FBS, 0.2 mM ascorbic acid 2-phosphate magnesium salt (Sigma Aldrich), […] streptomycin and 100 U/mL penicillin (Life Technologies). ACL cells were isolated from patients that have signed an informed consent form, in compliance with the Dutch legislation. The ethical committee of Medisch Spectrum Twente Hospital approved the collection.
(§2) The LOPAC library (Sigma-Aldrich) was used to screen embryonic endothelial-specific cytotoxic compounds. The compounds were solubilized in DMSO. The final compound concentration used in the screen was 4.5 μM in a final volume of 200 μL per well (96-well plate). HUAECs, hESC-derived EC and ACL cells were seeded at 16,000 cells/well (HUAECs and hESC-derived ECs) and 5,000 cells/well (ACL cells) and allowed to reach near confluence (approximately two days). After two days, medium was exchanged and test compounds and controls were added to the 96-well plates (all wells contained 0.25% (v/v) DMSO). After 4 days of incubation, cell viability was assessed using a PrestoBlue (Invitrogen) assay. This assay is based on a resazurin-based solution that indicates the reducing power of living cells and therefore measures indirectly their number. For each measurement, cell medium was removed and the PrestoBlue solution (10%) was added for 3 h at 37° C. upon which the absorbance was measured at 560-590 nm.
(§3) Disruption of vascular development has been directly correlated with prenatal loss, malformations and neurodevelopmental problems^41-44. […] The library was screened at a single dosage of 4.5 μM in a volume of 200 μL per well of EGM-2 medium, containing 0.25% DMSO (v/v). […] Six compounds (danazol, chlorpromazine hydrochloride, ellipticine, 3′,4′-dichlorobenzamil, fluphenazine dihydrochloride and 7-cyclopentyl-5-(4-phenoxy)phenyl-7H-pyrrolo[2,3-d]pyrimidin-4-ylamine) affected cell viability in both cells by a difference of 20% (FIG. 4B). The six compounds belong to different classes: cell cycle, ion pumps, dopamine pathway, phosphorylation and hormone signaling. The compounds selected from the primary screen were then tested against hESC-derived ECs and HUAECs at eight different concentrations to obtain a dose-response curve (FIG. 4C and FIG. 14).

[2] = test system: hESC-derived ECs versus ACL cells; assay: High-throughput screening of LOPAC library, PrestoBlue cell viability, hESC-derived ECs versus ACL cells; format: cell-based, human; details: LOPAC screen, 4.5 μM, 4 days of incubation, PrestoBlue assay
Experimental: as §1, §2, §3

Nc1ncnc2c1c(-c1ccc(Oc3ccccc3)cc1)cn2C1CCCC1 [7-Cyclo, 7-cyclopentyl-5-(4-phenoxy)phenyl-7H-pyrrolo[2,3-d]pyrimidin-4-ylamine]
effect on vasculature of Xenopus embryos (Xenopus embryos): interfere with angiogenic sprouting and disrupt blood vessel formation
difference in cell viability between hESC-derived ECs and HUAECs [1]: 20%
Differences (%) in cell viability (hESC-Derived ECs versus ACL cells) [2]: 65.4%
